Results on 13 compounds are retold here after patent US20250026778A1 (TIUMBIO CO., LTD., priority 2021, published 2025).

The target in one experiment is T1, his-galectin-3 (Homo sapiens, UniProt P17931).
T1 construct: purchased Abcam
T1 sequence (P17931 whole entry): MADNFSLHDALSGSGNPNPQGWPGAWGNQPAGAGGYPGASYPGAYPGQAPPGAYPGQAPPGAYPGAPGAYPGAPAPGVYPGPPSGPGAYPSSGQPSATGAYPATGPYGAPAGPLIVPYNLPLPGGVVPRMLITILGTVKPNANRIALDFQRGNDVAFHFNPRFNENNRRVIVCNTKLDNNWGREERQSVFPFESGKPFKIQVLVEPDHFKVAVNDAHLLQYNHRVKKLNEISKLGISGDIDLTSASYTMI
The experiment can be described thus: TR-FRET assay (in vitro galectin-3 binding inhibitory activity test). The following applies: Table 1; compound at 20 μM; 60 nM his-galectin-3, 15 nM biotin-ASF; read-out: % Inhibitory activity (at 20 μM). In short, it runs like this:
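Compound is premixed with his-galectin-3 (60 nM final), then biotin-ASF (15 nM), Tb anti-His antibody (2 nM) and streptavidin-d2 (20 nM) are added. After at least 3.5 hours at RT in HEPES/NaCl buffer with Tween 20 and BSA, TR-FRET is read at 615/665 nm. DMSO serves as the uninhibited control, ASF omission as background.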
On to `CC(=O)N[C@H]1C(O)O[C@H](CO)[C@@H](O[C@@H]2O[C@H](CO)[C@H](O)[C@H](O)[C@H]2O)[C@@H]1O` (stereo partly drawn) [LacNAc, N-acetyl-D-lactosamine, reference compound], for which the inhibition at 20 µM was < 25%.

The experiment is the same for the next values; noted with them: Table 2; compound at 20 μM; 60 nM his-galectin-3, 15 nM biotin-ASF; read-out: % Inhibitory activity (at 20 μM).
Take `O=C(N[C@@H]1CCO[C@]12O[C@H](CO)[C@H](O)[C@H](n1cc(-c3cc(F)c(F)c(F)c3)nn1)[C@H]2O)c1cccc2ccncc12` [Compound A246, N-((4R,5S,7R,8R,9S,10R)-8,10-dihydroxy-7-(hydroxymethyl)-9-(4-(3,4,5-trifluorophenyl)-1H-1,2,3-triazol-1-yl)-1,6-dioxaspiro[4.5]decan-4-yl)isoquinoline-8-carboxamide]: the inhibition at 20 µM was > 75%. Regarding `O=C(N[C@@H]1CCO[C@]12O[C@H](CO)[C@H](O)[C@H](n1cc(-c3cc(F)c(F)c(F)c3)nn1)[C@H]2O)c1cccc2cnccc12` [Compound A247, N-((4R,5S,7R,8R,9S,10R)-8,10-dihydroxy-7-(hydroxymethyl)-9-(4-(3,4,5-trifluorophenyl)-1H-1,2,3-triazol-1-yl)-1,6-dioxaspiro[4.5]decan-4-yl)isoquinoline-5-carboxamide], the inhibition at 20 µM was > 75%. Same read-out and setting: next, `O=C(N[C@@H]1CCO[C@]12O[C@H](CO)[C@H](O)[C@H](n1cc(-c3cc(F)c(F)c(F)c3)nn1)[C@H]2O)c1csc2cccc(Br)c12` [Compound A248, 4-bromo-N-((4R,5S,7R,8R,9S,10R)-8,10-dihydroxy-7-(hydroxymethyl)-9-(4-(3,4,5-trifluorophenyl)-1H-1,2,3-triazol-1-yl)-1,6-dioxaspiro[4.5]decan-4-yl)benzo[b]thiophene-3-carboxamide]: < 25%. For `O=C(N[C@@H]1CCO[C@]12O[C@H](CO)[C@H](O)[C@H](n1cc(-c3cc(F)c(F)c(F)c3)nn1)[C@H]2O)c1csc2ccc(F)cc12` [Compound A249, N-((4R,5S,7R,8R,9S,10R)-8,10-dihydroxy-7-(hydroxymethyl)-9-(4-(3,4,5-trifluorophenyl)-1H-1,2,3-triazol-1-yl)-1,6-dioxaspiro[4.5]decan-4-yl)-5-fluorobenzo[b]thiophene-3-carboxamide], the inhibition at 20 µM is > 75%. Same read-out and setting: then `O=C(N[C@@H]1CCO[C@]12O[C@H](CO)[C@H](O)[C@H](n1cc(-c3cc(F)c(F)c(F)c3)nn1)[C@H]2O)c1coc2cccc(Br)c12` [Compound A250, 4-bromo-N-((4R,5S,7R,8R,9S,10R)-8,10-dihydroxy-7-(hydroxymethyl)-9-(4-(3,4,5-trifluorophenyl)-1H-1,2,3-triazol-1-yl)-1,6-dioxaspiro[4.5]decan-4-yl)benzofuran-3-carboxamide], with > 75%; and `O=C(N[C@@H]1CCO[C@]12O[C@H](CO)[C@H](O)[C@H](n1cc(-c3cc(F)c(F)c(F)c3)nn1)[C@H]2O)c1csc2ccc(Br)cc12` [Compound A251, 5-bromo-N-((4R,5S,7R,8R,9S,10R)-8,10-dihydroxy-7-(hydroxymethyl)-9-(4-(3,4,5-trifluorophenyl)-1H-1,2,3-triazol-1-yl)-1,6-dioxaspiro[4.5]decan-4-yl)benzo[b]thiophene-3-carboxamide], with > 75%; and `O=C(N[C@@H]1CCO[C@]12O[C@H](CO)[C@H](O)[C@H](n1cc(-c3cc(F)c(F)c(F)c3)nn1)[C@H]2O)c1cc(=O)[nH]c2ccc(Br)cc12` [Compound A252, 6-bromo-N-((4R,5S,7R,8R,9S,10R)-8,10-dihydroxy-7-(hydroxymethyl)-9-(4-(3,4,5-trifluorophenyl)-1H-1,2,3-triazol-1-yl)-1,6-dioxaspiro[4.5]decan-4-yl)-2-oxo-1,2-dihydroquinoline-4-carboxamide], with > 75%. `O=C(N[C@@H]1CCO[C@]12O[C@H](CO)[C@H](O)[C@H](n1cc(-c3cc(F)c(F)c(F)c3)nn1)[C@H]2O)c1c[nH]c2cccc(Br)c12` [Compound A253, 4-bromo-N-((4R,5S,7R,8R,9S,10R)-8,10-dihydroxy-7-(hydroxymethyl)-9-(4-(3,4,5-trifluorophenyl)-1H-1,2,3-triazol-1-yl)-1,6-dioxaspiro[4.5]decan-4-yl)-1H-indole-3-carboxamide]: the inhibition at 20 µM is > 75%. `O=C(N[C@@H]1CCO[C@]12O[C@H](CO)[C@H](O)[C@H](n1cc(-c3cc(F)c(F)c(F)c3)nn1)[C@H]2O)c1cc(=O)[nH]c2ccccc12` [Compound A254, N-((4R,5S,7R,8R,9S,10R)-8,10-dihydroxy-7-(hydroxymethyl)-9-(4-(3,4,5-trifluorophenyl)-1H-1,2,3-triazol-1-yl)-1,6-dioxaspiro[4.5]decan-4-yl)-2-oxo-1,2-dihydroquinoline-4-carboxamide]: the inhibition at 20 µM was 50 to 75%. With `O=C(N[C@@H]1CCO[C@]12O[C@H](CO)[C@H](O)[C@H](n1cc(-c3cc(F)c(F)c(F)c3)nn1)[C@H]2O)c1c[nH]c2cccc(F)c12` [Compound A255, N-((4R,5S,7R,8R,9S,10R)-8,10-dihydroxy-7-(hydroxymethyl)-9-(4-(3,4,5-trifluorophenyl)-1H-1,2,3-triazol-1-yl)-1,6-dioxaspiro[4.5]decan-4-yl)-4-fluoro-1H-indole-3-carboxamide], the inhibition at 20 µM was > 75%.

Consider `O=C(N[C@@H]1CCO[C@]12O[C@H](CO)[C@H](O)[C@H](n1cc(-c3cc(F)c(F)c(F)c3)nn1)[C@H]2O)c1cccc2ccc(Cl)cc12` [Compound A256, 7-chloro-N-((4R,5S,7R,8R,9S,10R)-8,10-dihydroxy-7-(hydroxymethyl)-9-(4-(3,4,5-trifluorophenyl)-1H-1,2,3-triazol-1-yl)-1,6-dioxaspiro[4.5]decan-4-yl)-1-naphthamide], for which the inhibition at 20 µM was > 75%. Take `CO[C@@H]1[C@@H](n2cc(-c3cc(F)c(F)c(F)c3)nn2)[C@@H](O)[C@@H](CO)O[C@@]12CCCO2` [Compound A257, (5S,7R,8R,9S,10R)-7-(hydroxymethyl)-10-methoxy-9-(4-(3,4,5-trifluorophenyl)-1H-1,2,3-triazol-1-yl)-1,6-dioxaspiro[4.5]decan-8-ol]: the inhibition at 20 µM was 25 to 50%.

The experiment is the same for the next values; noted with them: Table 3, found values; compound at 20 μM; 60 nM his-galectin-3, 15 nM biotin-ASF; read-out: % Inhibitory activity (at 20 μM).
For the compound `O=C(N[C@@H]1CCO[C@]12O[C@H](CO)[C@H](O)[C@H](n1cc(-c3cc(F)c(F)c(F)c3)nn1)[C@H]2O)c1csc2ccc(F)cc12` [Compound A249, N-((4R,5S,7R,8R,9S,10R)-8,10-dihydroxy-7-(hydroxymethyl)-9-(4-(3,4,5-trifluorophenyl)-1H-1,2,3-triazol-1-yl)-1,6-dioxaspiro[4.5]decan-4-yl)-5-fluorobenzo[b]thiophene-3-carboxamide], the inhibition at 20 µM was determined as 89.9%. Take `CO[C@@H]1[C@@H](n2cc(-c3cc(F)c(F)c(F)c3)nn2)[C@@H](O)[C@@H](CO)O[C@@]12CCCO2` [Compound A257, (5S,7R,8R,9S,10R)-7-(hydroxymethyl)-10-methoxy-9-(4-(3,4,5-trifluorophenyl)-1H-1,2,3-triazol-1-yl)-1,6-dioxaspiro[4.5]decan-8-ol]: the inhibition at 20 µM is 39.2%.
